In ChEMBL document CHEMBL1128954, “Discovery of antirhinoviral leads by screening a combinatorial library of ureas prepared using covalent scavengers” (Bioorg Med Chem Lett, 1996):

Assays:
Human rhinovirus sp. [1] = assay: Compound was evaluated for cytotoxicity against human rhinovirus-14 (HRV-14) in whole cells as combinatorial sample; assay type: functional
Human rhinovirus sp. [2] = assay: Compound was evaluated for cytotoxicity against human rhinovirus-14 (HRV-14) in whole cells as cresynthesized product using XTT assay.; assay type: functional
Human rhinovirus sp. [3] = assay: Compound was evaluated for the inhibition of human rhinovirus-14 HRV-14 at 1 ug/ml; assay type: functional
Human rhinovirus sp. [4] = assay: Compound was evaluated for antirhinoviral activity against human rhinovirus-14 (HRV-14) in whole cell assay; assay type: functional, organism-based
Human rhinovirus sp. [5] = assay: Compound was evaluated for antirhinoviral activity against human rhinovirus-14 (HRV-14) as combinatorial sample; assay type: functional, organism-based
Human rhinovirus sp. [6] = assay: Compound was evaluated for antirhinoviral activity against human rhinovirus-14 (HRV-14) as resynthesized product using XTT assay.; assay type: functional, organism-based

CCCCOC(=O)c1ccc(NC(=O)N2CCN(CC(=O)NC(C)C)CC2)cc1
TC50 (Human rhinovirus sp. [1]): >40000 nM
TC50 (Human rhinovirus sp. [2]): >40000 nM
inhibition at 1 µg/mL (Human rhinovirus sp. [3]): 101%
IC50 (Human rhinovirus sp. [4]): 2400 nM
IC50 (Human rhinovirus sp. [4]; Human rhinovirus sp.): 1800 nM

CCCCOC(=O)c1ccc(NC(=O)NCCNC(C)=O)cc1
inhibition at 1 µg/mL (Human rhinovirus sp. [3]): 0%

CCCCOC(=O)c1ccc(NC(=O)N2CCCC(C(N)=O)C2)cc1 (stereo not drawn)
inhibition at 1 µg/mL (Human rhinovirus sp. [3]): 1%

CCCCOC(=O)c1ccc(NC(=O)NCCc2ccc(S(N)(=O)=O)cc2)cc1
TC50 (Human rhinovirus sp. [1]): 34000 nM
TC50 (Human rhinovirus sp. [2]): >40000 nM
IC50 (Human rhinovirus sp. [5]): 690 nM
IC50 (Human rhinovirus sp. [6]): 810 nM
inhibition at 1 µg/mL (Human rhinovirus sp. [3]): 102%

CCCCOC(=O)c1ccc(NC(=O)N2CCCCC2O)cc1 (stereo not drawn)
inhibition at 1 µg/mL (Human rhinovirus sp. [3]): 2%

CCCCOC(=O)c1ccc(NC(=O)N2CCSCC2)cc1
inhibition at 1 µg/mL (Human rhinovirus sp. [3]): 1%

CCCCOC(=O)c1ccc(NC(=O)N2CCC(C(N)=O)CC2)cc1
inhibition at 1 µg/mL (Human rhinovirus sp. [3]): 0%

CCCCOC(=O)c1ccc(NC(=O)NC2CC3CCC2C3)cc1 (stereo not drawn)
inhibition at 1 µg/mL (Human rhinovirus sp. [3]): 1%

CCCCOC(=O)c1ccc(NC(=O)N2CCN(c3ccccn3)CC2)cc1
inhibition at 1 µg/mL (Human rhinovirus sp. [3]): 0%

CCCCOC(=O)c1ccc(NC(=O)N2CCCC(C(=O)N(CC)CC)C2)cc1 (stereo not drawn)
inhibition at 1 µg/mL (Human rhinovirus sp. [3]): 0%
